Assay results taken from patent US20080233051A1, “Nanoparticles for two-photon activated photodynamic therapy and imaging” (priority 2006, published 2008).

How the values were obtained:
[1] = Fluorescence quantum yield of BDSA in solution and as nanoaggregates; type: physicochemical
Description: A representative transmission electron microscopic (TEM) image of the obtained nanoaggregates with a diameter of 44±7 nm is shown in FIG. 1a. […] The fluorescence quantum yield (Φf) of nanoaggregated state varies (0.1˜0.3), depending on the preparation conditions, including solvent, solvent/water ratio, and overall dye concentration, etc. […] No notable sign of H- or J-aggregation was observed, implying that molecular stacking is neither too close nor well ordered within the nanoaggregated structure. The fluorescence quenching in solution can be understood as dominant non-radiative decay, enhanced by free intramolecular torsional motion in solution, as in the case of flexible molecules showing viscosity-dependent fluorescence. Moreover, the weak, broad, and red-shifted emission of the solution, compared to that of the aggregate, implies the existence of large-amplitude relaxation in the excited state, such as twisted intramolecular charge transfer (TICT) which often acts as an intramolecular fluorescence quencher due to the nπ* characteristics. This is supported by our observation of intense and blue-shifted monomer fluorescence from a dilute solid solution of BDSA in PMMA film, where isolated molecules are frozen in the distorted form by rigid matrix, to prevent fluorescence quenching motion. The structural effect on aggregate formation and fluorescence was studied with a specific comparison between BDSA and the 1,4-phenylene analogue, BDSB, by varying the solvent/water ratio.

[2] = One- and two-photon excited fluorescence of HPPH/BDSA nanoparticles (intraparticle FRET); type: physicochemical; settings: free HPPH, self-aggregation
Protocol: To produce fluorescent domains of BDSA aggregates in the particle matrix, the following amounts were loaded to induce phase separation: 10, 20, and 30 wt % with respect to the total VTES amount. Fluorescence lifetime measurements were performed using Time correlated Single Photon Counting (TCSPC) technique. For this measurements, Ti:Sapphire laser providing 800 nm femtosecond pulses was used as excitation source and a SPC-830 TCSPC module (Becker & Hickl) with an H7422 (Hamamatsu) detector with a response time in the range of 250 ps was used for the measurements. […] For an estimation of the instrument response function (IRF), a dye with a known fluorescence lifetime (from Streak camera measurements), less than 50 ps was used. […] For quantitative comparison, the concentrations of the nanoparticle water dispersions were kept the same for all the sample sets. The dispersions of all examined HPPH-loaded nanoparticles had the absorbance of 0.07 at 665 nm.
When excited at 425 nm, the obtained fluorescence spectrum of the coencapsulating nanoparticles is a composite of the emission contributions from the donor BDSA aggregates and the acceptor HPPH. Compared with the fluorescence intensities of the nanoparticles containing the corresponding amount of each dye, BDSA emission is quenched by 70% and HPPH emission is amplified ca. 5 times, indicating the occurrence of FRET. […]

Fluorescence quantum yield (Φf) ([1]; NMP solution)	Fluorescence intensification by aggregation ([1]; aggregate versus NMP solution)	Fluorescence change on aggregate formation ([1]; varying solvent/water ratio, THF/H2O, 5 μM (FIG. 2))	Fluorescence in water dispersions [2]	SMILES
~0.009	more than 30 times	Enhanced fluorescence is seen		CN(CCOC(=O)c1ccccc1)c1ccc(C=Cc2ccc(C=Cc3c4ccccc4c(C=Cc4ccc(C=Cc5ccc(N(C)CCOC(=O)c6ccccc6)cc5)cc4)c4ccccc34)cc2)cc1 [BDSA, 9,10-Bis(4′-{4″-[N-methyl-N-(2-benzoyloxyethyl)amino]styryl}styryl)anthracene]
			completely quenched	CCCCCCOC(C)C1=C(C)c2cc3nc(c4c5[nH]c(cc6[nH]c(cc1n2)c(C)c6CC)c(C)c5C(=O)C4)C(CCC(=O)O)C3C (stereo not shown) [HPPH, 2-devinyl-2-(1-hexyloxyethyl)pyropheophorbide]
